For 21 compounds, IC50 results are on record in patent US11103493B2, “Substituted pyridinyl compounds as indoleamine 2,3-dioxygenase (IDO) inhibitors” (Merck Sharp & Dohme Corp., priority 2017, dated 2021).

The target in test [1] is T1, IDO1 (Homo sapiens, UniProt P14902). The test can be described thus: IDO1 Human Whole Blood Assay. The format is cell-based. As to conditions: LPS and IFNγ 100 ng/mL, 18 h, kynurenine by LC/MS/MS. On the procedure:
IDO1 Human Whole Blood Assay
Compounds to be tested were serially diluted in ten 3-fold steps in DMSO starting from 10 mM. 3 μL of compound dilutions or DMSO alone were then dispensed from the dilution plate into a polypropylene 96-well assay plate containing 97 μL of RPMI medium using an Echo 555 acoustic liquid handler (Labcyte). LPS and IFNγ was prepared in RPMI medium to a 10× of final conc. (1000 ng/mL), final concentration is 100 ng/mL.
Human whole blood was drawn in sodium heparin coated tubes from healthy internal donors. 240 μL of blood was transferred to each of the wells of a v-bottom 96 well plate. 30 μL of compound was transferred from intermediate dilution plate, and incubated for 15 min. 30 μL from stimulants was then transferred to blood and mixed thoroughly. Plate was covered with breathable membrane and incubated at 37° C. for overnight (18 h).
On day 2, isotope labeled standard solutions of kunurenine and tryptophan was made in water at 10× concentration and 30 μL was added to the blood at […] concentration. The assay plates were centrifuged at 300×G for 10 min with no brake to separate plasma from red blood cells. 60 μL of plasma samples was removed without disturbing red blood cells. Plasma was diluted with RPMI in 1:1 ratio and proteins were precipitated out with two volumes of Acetonitrile. The plates were centrifuged at 4000×G for 60 min. 20 μL of supernatant was carefully transferred to a 384 well plate containing 40 μL of 0.1% formic acid in water and analyzed by LC/MS/MS.
LC/MS/MS analyses were performed using Thermo Fisher's LX4-TSQ Quantum Ultra system. This system consists of four Agilent binary high-performance liquid chromatography (HPLC) pumps and a TSQ Quantum Ultra triple quadrupole MS/MS instrument. For each sample, 5 μL were injected onto an Atlantis T3 column (2.1 mm×150 mm, 3 μm particle size) from Waters. The mobile phase gradient pumped at 0.8 mL/min was used to elute the analytes from the column at 25° C. The elution started at 0% B increasing linearly to 25% B at 6.5 min, holding at 25% for 1 min, re-equilibrating to 10 min. Mobile phase A consisted of 0.1% formic acid in water. Mobile phase B consisted of 0.1% of formic acid in acetonitrile. Data was acquired in positive mode using a HESI interface. The operational parameters for the TSQ Quantum Ultra instrument were a spray voltage of 4000 V, capillary temperature of 380° C., vaporizer temperature 400° C., shealth gas 60 arbitrary units, Aux gas 20 arbitrary units, tube lens 85 and collision gas 1.2 mTorr. SRM chromatograms of kynurenine (QI: 209.2>Q3:94.0) and internal standard (QI: 215.3>Q3:98.2) were collected for 90 sec. The peak area was integrated by Xcalibur Quan software. The ratios between the kynurenine generated in the reaction and 2D6-Kynurenine spiked-in internal standard were used to generate percentage inhibition and IC50 values. Compounds were titrated and IC50's were calculated by 4 parameter sigmoidal curve fitting formula.

In test [2] the target is T1, IDO1. Put plainly: IDO1 Cellular Assay in HeLa Cells Stimulated with IFNγ. The format is cell-based. As to conditions: IFNγ 100 ng/mL, 300 uM L-tryptophan, about 48 hours incubation, fluorescence readout, read-out: IDO1 HeLa Cell Assay, IC50. On the procedure: IDO1 Cellular Assay in HeLa Cells Stimulated with IFNγ
HeLa cells were cultured in complete HeLa culture medium (90% EMEM, 10% heat-inactivated fetal bovine serum) and expanded to about 1×10^9 cells. The cells were then collected and frozen down at 1×10^7 cells/vial in 1 mL frozen medium (90% complete HeLa culture medium, 10% DMSO).
Compounds to be tested were serially diluted in ten 3-fold steps in DMSO starting from 10 mM DMSO stocks in Echo low volume plate(s).
Frozen HeLa cells were thawed and transferred into HeLa assay medium (99% complete HeLa culture medium, 1% Pen/Strep) with 20 mL medium/vial of cells. The cells were spun down at 250 g in a table top centrifuge for 5 min and suspended in same volume of HeLa assay medium. The cells were then counted and adjusted to a density of 2×10^5 cells/mL in HeLa assay medium. Sterile L-tryptophan were added to the cells with final concentration of 300 uM L-tryptophan. A small aliquot (2 mL/plate) of HeLa cells were set aside and were not treated with IFNγ, to serve as the Max-E control.
HeLa cells with and without IFNγ were dispensed to the respective wells of 384-well assay plates containing the compounds. The plates were incubated for about 48 hours at a 37° C., 5% CO2 incubator. Afterwards, 12 μL of 0.5 M methyl isonipecotate in dimethyl sulfoxide were added into each well and the plates were sealed and incubated at 37° C. without CO2 overnight. The plates were centrifuged for 1 min at 200×g. The resulting fluorescence was measured in a Spectramax plate reader (Molecular Devices) with a 400 nm excitation filter and a 510 nm emission filter.
Potencies were calculated by […] least squares fit to the four parameter logistic IC50 equation.

By IC50 is commonly meant the concentration that inhibits the measured activity by half.

T1 sequence (P14902 whole entry): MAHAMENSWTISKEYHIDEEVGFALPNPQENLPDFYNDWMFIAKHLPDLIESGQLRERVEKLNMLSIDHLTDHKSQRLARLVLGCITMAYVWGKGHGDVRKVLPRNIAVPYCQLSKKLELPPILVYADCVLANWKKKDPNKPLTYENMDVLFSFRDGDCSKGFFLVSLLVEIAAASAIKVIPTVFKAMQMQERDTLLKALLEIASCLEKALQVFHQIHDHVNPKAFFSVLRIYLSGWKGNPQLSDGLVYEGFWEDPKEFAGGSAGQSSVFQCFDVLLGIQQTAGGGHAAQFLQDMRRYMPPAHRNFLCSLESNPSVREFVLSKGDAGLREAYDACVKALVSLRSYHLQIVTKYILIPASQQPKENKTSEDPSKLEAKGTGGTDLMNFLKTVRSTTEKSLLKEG

On to `N#Cc1cccc(C(=O)Nc2ccc(C3(c4nc5cc(C#N)ccc5[nH]4)CCC3)cn2)c1` [Ex. 5, 3-Cyano-N-(5-(1-(5-cyano-1H-benzo[d]imidazol-2-yl)cyclobutyl)pyridin-2-yl)benzamide], for which the IC50 on IDO1 [1] was 864 nM; on IDO1 [2] it was 12.5 nM.

For the compound `O=C(Nc1ccc(C2(c3nc4ncc(C(F)(F)F)cc4[nH]3)CCC2)cn1)c1cccc(Cl)c1` [Ex. 7, 3-chloro-N-(5-{1-[6-(trifluoromethyl)-1H-imidazo[4,5-b]pyridin-2-yl]cyclobutyl}pyridin-2-yl)benzamide], the IC50 against IDO1 [1] turned out to be 273 nM; on IDO1 [2], 5.66 nM.

Take `Cc1cc(C)c2[nH]c(C3(c4ccc(NC(=O)c5cccc(Cl)c5)nc4)CCC3)nc2c1` [Ex. 8, 3-chloro-N-{5-[1-(5,7-dimethyl-1H-benzimidazol-2-yl)cyclobutyl]pyridin-2-yl}benzamide]: the half-inhibitory concentration (IC50) worked out at 493 nM against IDO1 [1] and 4.69 nM on IDO1 [2].

Regarding `Cc1cc(Cl)cc2nc(C3(c4ccc(NC(=O)c5cccc(Cl)c5)nc4)CCC3)[nH]c12` [Ex. 9, 3-chloro-N-{5-[1-(5-chloro-7-methyl-1H-benzimidazol-2-yl)cyclobutyl]pyridin-2-yl}benzamide], the IC50 was determined as 504 nM at IDO1 [1] and 5.1 nM at IDO1 [2].

In the case of `Cc1ccc2nc(C3(c4ccc(NC(=O)c5cccc(Cl)c5)nc4)CCC3)[nH]c2c1C` [Ex. 10, 3-chloro-N-{5-[1-(6,7-dimethyl-1H-benzimidazol-2-yl)cyclobutyl]pyridin-2-yl}benzamide], the IC50 was determined as 501 nM on IDO1 [1] and 5.23 nM on IDO1 [2].

`Cc1ccc2nc(C3(c4ccc(NC(=O)c5cccc(Cl)c5)nc4)CCC3)[nH]c2c1` [Ex. 13, 3-chloro-N-{5-[1-(6-methyl-1H-benzimidazol-2-yl)cyclobutyl]pyridin-2-yl}benzamide]: the IC50 at IDO1 [1] worked out at 125 nM; at IDO1 [2] it was 2.79 nM.

On to `O=C(Nc1ccc(C2(c3nc4cc(F)c(F)cc4[nH]3)CCC2)cn1)c1cccc(Cl)c1` [Ex. 16, 3-chloro-N-{5-[1-(5,6-difluoro-1H-benzimidazol-2-yl)cyclobutyl]pyridin-2-yl}benzamide], for which the figures for the IC50 against IDO1 [1] and at IDO1 [2] were 889 nM and 7.77 nM, respectively.

As to `O=C(Nc1ccc(C2(c3nc4cc(F)cc(F)c4[nH]3)CCC2)cn1)c1cccc(Cl)c1` [Ex. 17, 3-chloro-N-{5-[1-(5,7-difluoro-1H-benzimidazol-2-yl)cyclobutyl]pyridin-2-yl}benzamide], the IC50 at IDO1 [1] stood at 829 nM; at IDO1 [2] it was 4.9 nM.

In the case of `O=C(Nc1ccc(C2(c3nc4ccc(C(F)(F)F)cc4[nH]3)CCC2)cn1)c1cccc(Cl)c1` [Ex. 19, 3-chloro-N-(5-{1-[6-(trifluoromethyl)-1H-benzimidazol-2-yl]cyclobutyl}pyridin-2-yl)benzamide], the IC50 at IDO1 [1] turned out to be 279 nM; on IDO1 [2], 2.42 nM.

Turning to `O=C(Nc1ccc(C2(c3nc4ccc(Cl)cc4[nH]3)CCC2)cn1)c1cccc(Cl)c1` [Ex. 21, 3-chloro-N-{5-[1-(6-chloro-1H-benzimidazol-2-yl)cyclobutyl]pyridin-2-yl}benzamide], the values for the IC50 on IDO1 [1] and at IDO1 [2] were 80.9 nM and 1.89 nM, respectively.

`O=C(Nc1ccc(C2(c3nc4ccc(OC(F)F)cc4[nH]3)CCC2)cn1)c1cccc(Cl)c1` [Ex. 23, 3-chloro-N-(5-{1-[6-(difluoromethoxy)-1H-benzimidazol-2-yl]cyclobutyl}pyridin-2-yl)benzamide]: the figures for the IC50 on IDO1 [1] and on IDO1 [2] were 1070 nM and 7.67 nM, respectively.

Consider `O=C(Nc1ccc(C2(c3nc4cccc(CO)c4[nH]3)CCC2)cn1)c1cccc(Cl)c1` [Ex. 24, 3-chloro-N-(5-{1-[7-(hydroxymethyl)-1H-benzimidazol-2-yl]cyclobutyl}pyridin-2-yl)benzamide], for which the IC50 against IDO1 [1] worked out at 826 nM; on IDO1 [2] it was 6.65 nM.

On to `O=C(Nc1ccc(C2(c3nc4cccc(F)c4[nH]3)CCC2)cn1)c1cccc(Cl)c1` [Ex. 25, 3-chloro-N-{5-[1-(7-fluoro-1H-benzimidazol-2-yl)cyclobutyl]pyridin-2-yl}benzamide], for which the IC50 against IDO1 [1] was 691 nM; on IDO1 [2], 7.21 nM.

Regarding `Cc1cc2nc(C3(c4ccc(NC(=O)c5cccc(Cl)c5)nc4)CCC3)[nH]c2cc1F` [Ex. 27, 3-chloro-N-{5-[1-(6-fluoro-5-methyl-1H-benzimidazol-2-yl)cyclobutyl]pyridin-2-yl}benzamide], the IC50 at IDO1 [1] was 496 nM; at IDO1 [2], 3.47 nM.

`N#Cc1cccc(C(=O)Nc2ccc(C3(c4nc5cc(C(F)(F)F)cnc5[nH]4)CCC3)cn2)c1` [Ex. 28, 3-cyano-N-(5-{1-[6-(trifluoromethyl)-3H-imidazo[4,5-b]pyridin-2-yl]cyclobutyl}pyridin-2-yl)benzamide]: the IC50 was 2290 nM on IDO1 [1] and 23.5 nM on IDO1 [2].

On to `N#Cc1cccc(C(=O)Nc2ccc(C3(c4nc5cc(Cl)ccc5[nH]4)CCC3)cn2)c1` [Ex. 30, N-(5-[1-(5-chloro-1H-benzimidazol-2-yl)cyclobutyl]pyridin-2-yl}-3-cyanobenzamide], for which the IC50 worked out at 312 nM against IDO1 [1] and 6.58 nM on IDO1 [2].

Consider `O=C(Nc1ccc(C2(c3nc4cccc(CCCO)c4[nH]3)CCC2)cn1)c1cccc(Cl)c1` [Ex. 32, 3-Chloro-N-(5-(1-(7-(3-hydroxypropyl)-1H-benzo[d]imidazol-2-yl)cyclobutyl)pyridin-2-yl)benzamide], for which the IC50 worked out at 446 nM on IDO1 [1] and 5.4 nM on IDO1 [2].

Turning to `O=C(O)Cc1cccc2nc(C3(c4ccc(NC(=O)c5cccc(Cl)c5)nc4)CCC3)[nH]c12` [Ex. 33, 2-(2-(1-(6-(3-Chlorobenzamido)pyridin-3-yl)cyclobutyl)-1H-benzo[d]imidazol-7-yl)acetic acid], the IC50 against IDO1 [1] is 1600 nM; at IDO1 [2], 20.7 nM.

In the case of `N#Cc1cccc(C(=O)Nc2ccc(C3(c4nc5cccc(CCO)c5[nH]4)CCC3)cn2)c1` [Ex. 34, 3-Cyano-N-(5-(1-(7-(2-hydroxyethyl)-1H-benzo[d]imidazol-2-yl)cyclobutyl)pyridin-2-yl)benzamide], the IC50 against IDO1 [1] stood at 3290 nM; at IDO1 [2] it was 24.8 nM.

Consider `N#Cc1cccc(C(=O)Nc2ccc(C3(c4nc5cccc(C(=O)N6CCC(O)CC6)c5[nH]4)CCC3)cn2)c1` [Ex. 37, 3-Cyano-N-(5-(1-(7-(4-hydroxypiperidine-1-carbonyl)-1H-benzo[d]imidazol-2-yl)cyclobutyl)pyridin-2-yl)benzamide], for which the IC50 at IDO1 [1] was determined as 58.2 nM; on IDO1 [2], 5.38 nM.

As to `N#Cc1cccc(C(=O)Nc2ccc(C3(c4nc5cccc(C(=O)N6CCCC6)c5[nH]4)CCC3)cn2)c1` [Ex. 38, 3-cyano-N-(5-{1-[7-(pyrrolidine-1-carbonyl)-1H-benzimidazol-2-yl]cyclobutyl}pyridin-2-yl)benzamide], the IC50 at IDO1 [1] was 220 nM; at IDO1 [2], 2.18 nM.
